This is an account of results in ChEMBL document CHEMBL1201862, “PubChem BioAssay data set” (2004).

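Five compound concentrations were applied to cells in 96-well plates for 48 hours; endpoints were derived by simple linear interpolation of the resulting dose-response curve. GI50 = concentration required for 50% inhibition of growth.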 Active and inactive are the calls of the source. No stated cut-off is given here; in the data, active = GI50 up to about 1.1 µM and inactive = higher.

Test systems include OVCAR-3; ACHN; MDA-N; DU-145; MDA-MB-231; MCF7; HCT-15; EKVX; SK-MEL-28; HOP-62; SNB-19; NCI-H226; K562; IGROV-1; NCI-H23; A498; CCRF-CEM; A549; CAKI-1; Malme-3M.
What all share (test): inhibition of tumour cell growth, NCI panel, 48 h

As to `O=C1/C(=C/c2ccccc2)NC(=S)N1CN1CCCCC1`, the GI50 with OVCAR-3, in the test on ACHN, with MDA-N, in the test with DU-145, in the test with MDA-MB-231 and in the test on MCF7 was > 100 µM (inactive) in each case. In addition, the GI50 was > 100 µM in the test on HCT-15; > 100 µM (inactive) in the test on EKVX; > 100 µM (inactive) in the test with SK-MEL-28; > 100 µM (inactive) in the test on HOP-62; > 100 µM (inactive) in the test on SNB-19; > 100 µM (inactive) in the test on NCI-H226. The GI50 in the test on K562 is > 100 µM (inactive); with IGROV-1, > 100 µM (inactive); with NCI-H23 it was > 100 µM (inactive); in the test on A498, 99.5 µM (inactive); with CCRF-CEM, > 100 µM (inactive); in the test with A549, > 100 µM (inactive).
In the case of `CCOC(=O)[C@@H]1ON2O[C@H](OC3CCCCC3c3ccccc3)C[C@H]3OC(=O)[C@@H]1C32` (stereo partly drawn), the GI50 with OVCAR-3, in the test with ACHN, in the test with MDA-N, in the test with DU-145, with MDA-MB-231 and in the test with MCF7 was > 100 µM (inactive) in each case. The GI50 with HCT-15 was > 100 µM; with EKVX, > 100 µM (inactive); with HOP-62, > 100 µM (inactive); with CAKI-1, > 100 µM (inactive); in the test on NCI-H226 it was > 100 µM (inactive); in the test with K562, > 100 µM (inactive). Besides, the GI50 in the test with IGROV-1 was > 100 µM (inactive); with NCI-H23 it was 27 µM (inactive); with A498, > 100 µM (inactive); in the test with CCRF-CEM it was 0.209 µM (active); in the test on A549, > 100 µM (inactive).
In the case of `Cc1ccc(SC(=O)N2C(=S)N=C(NC3CCCCC3)C23CCCCC3)cc1`, the GI50 in the test on OVCAR-3 was 50.6 µM (inactive); in the test on Malme-3M, > 100 µM (inactive); in the test with ACHN, 80 µM (inactive); in the test on MDA-N it was > 100 µM (inactive); with DU-145 it was > 100 µM (inactive); in the test with MDA-MB-231, > 100 µM (inactive). The GI50 with MCF7 is 51.2 µM (inactive); with HCT-15 it was 87.9 µM; in the test with EKVX it was > 100 µM (inactive); with SK-MEL-28, > 100 µM (inactive); in the test with HOP-62, > 100 µM (inactive); in the test on SNB-19 it was > 100 µM (inactive). For the same molecule, the GI50 with CAKI-1 was > 100 µM (inactive); in the test with K562 it was > 100 µM (inactive); with IGROV-1, 36.1 µM (inactive); in the test on NCI-H23, > 100 µM (inactive); in the test on CCRF-CEM, 29 µM (inactive); in the test on A549 it was 75.5 µM (inactive).
With `Oc1ccc([C@H]2c3c(O)cc(O)cc3C3c4c(cc(O)cc4[C@@H]2[C@H]2c4cc(O)cc5c4C(c4cc(O)cc(O)c4[C@@H]2c2ccc(O)cc2)[C@@H](c2ccc(O)cc2)O5)O[C@@H]3c2ccc(O)cc2)cc1` (stereo partly drawn), the GI50 in the test on OVCAR-3 is 0.569 µM (active); in the test on Malme-3M, 0.411 µM (active); in the test on ACHN, 6.93 µM (inactive); in the test on MDA-N, 0.871 µM (active); in the test with DU-145 it was 2.99 µM (inactive); with MDA-MB-231, > 100 µM (inactive). Besides, the GI50 in the test on MCF7 is 0.955 µM (active); in the test with HCT-15, > 100 µM; in the test on EKVX it was 0.29 µM (active); in the test with SK-MEL-28, 0.182 µM (active); in the test with HOP-62, 1.09 µM (active); in the test on SNB-19 it was 3.35 µM (inactive). Moreover, the GI50 in the test with CAKI-1 is > 100 µM (inactive); in the test on NCI-H226, > 100 µM (inactive); with K562, 35.2 µM (inactive); with IGROV-1, 6.73 µM (inactive); in the test on NCI-H23 it was 0.526 µM (active); with CCRF-CEM it was 1.53 µM (inactive). The GI50 in the test with A549 was 0.634 µM (active).
For `Cc1cc2c(cc1Cl)SC(c1ccccc1)C(=O)NS2(=O)=O` (stereo not drawn), the GI50 in the test with OVCAR-3 was 21.6 µM (inactive); in the test on ACHN, 36.7 µM (inactive); with MDA-N, 34.1 µM (inactive); with DU-145 it was 34.9 µM (inactive); in the test on MDA-MB-231 it was 32.3 µM (inactive); in the test on MCF7, 34 µM (inactive). Moreover, the GI50 with HCT-15 was 25 µM; in the test on EKVX, 70.1 µM (inactive); with SK-MEL-28, 34.8 µM (inactive); with HOP-62, 44.3 µM (inactive); with CAKI-1, 38.9 µM (inactive); with NCI-H226, 36.3 µM (inactive). For the same molecule, the GI50 was 39.2 µM (inactive) in the test with K562; 40.8 µM (inactive) in the test with IGROV-1; 24.4 µM (inactive) in the test with NCI-H23; 26.9 µM (inactive) with A498; 47.4 µM (inactive) in the test with CCRF-CEM.
Take `CC(C)C1N(C)c2ccc(Cl)cc2[C@H]2c3ccccc3CCN12` (stereo partly drawn): the GI50 was 27.2 µM (inactive) with OVCAR-3; 82.2 µM (inactive) in the test with ACHN; 26.1 µM (inactive) with MDA-N; 53.5 µM (inactive) in the test with DU-145; 24.4 µM (inactive) in the test with MDA-MB-231; 30.7 µM (inactive) in the test on MCF7. In addition, the GI50 in the test on HCT-15 was 37.1 µM; in the test on EKVX, 28 µM (inactive); in the test with SK-MEL-28, 54.8 µM (inactive); in the test on HOP-62, > 100 µM (inactive); with SNB-19 it was > 100 µM (inactive); in the test on NCI-H226, 14.3 µM (inactive). The GI50 was 71.8 µM (inactive) with K562; 23.4 µM (inactive) in the test on IGROV-1; > 100 µM (inactive) in the test on NCI-H23; 78 µM (inactive) in the test on A498; 97.9 µM (inactive) in the test with CCRF-CEM; 39 µM (inactive) in the test on A549.
Turning to `O=C1Nc2ccccc2C1Cc1ccc([N+](=O)[O-])cc1` (stereo not drawn), the GI50 in the test on OVCAR-3 was > 100 µM (inactive); in the test with ACHN, > 100 µM (inactive); with MDA-N it was 71.4 µM (inactive); in the test with DU-145, > 100 µM (inactive); in the test on MDA-MB-231 it was 14 µM (inactive); in the test on MCF7, > 100 µM (inactive). Further, the GI50 in the test with HCT-15 is > 100 µM; in the test on EKVX, > 100 µM (inactive); in the test on SK-MEL-28, > 100 µM (inactive); with HOP-62, > 100 µM (inactive); in the test on SNB-19, > 100 µM (inactive); with CAKI-1, > 100 µM (inactive). Also, the GI50 in the test on NCI-H226 is > 100 µM (inactive); in the test on K562 it was > 100 µM (inactive); with IGROV-1, 21.6 µM (inactive); in the test on NCI-H23, > 100 µM (inactive); in the test on CCRF-CEM, 20.1 µM (inactive); with A549, > 100 µM (inactive).
With `Cc1cn2c(/C=C3/C(=O)Nc4cccc(Cl)c43)c(Cl)nc2s1`, the GI50 is 61.9 µM (inactive) in the test with OVCAR-3; > 100 µM (inactive) in the test with Malme-3M; 20.6 µM (inactive) with ACHN; > 100 µM (inactive) in the test with MDA-N; > 100 µM (inactive) in the test on DU-145; 15.3 µM (inactive) in the test with MDA-MB-231. Further, the GI50 is > 100 µM (inactive) with MCF7; > 100 µM in the test on HCT-15; 55.8 µM (inactive) in the test with EKVX; 1.12 µM (inactive) in the test on SK-MEL-28; 13.6 µM (inactive) in the test with HOP-62; 40.4 µM (inactive) in the test on SNB-19. For the same molecule, the GI50 is > 100 µM (inactive) with CAKI-1; > 100 µM (inactive) in the test on K562; > 100 µM (inactive) with IGROV-1; 25.8 µM (inactive) in the test on NCI-H23; 63.2 µM (inactive) in the test with A498; 13.5 µM (inactive) in the test on CCRF-CEM. In the test with A549, the GI50 was 27 µM (inactive).
For `CC1(C)C(CCO)CC1n1ccc(=O)[nH]c1=O` (stereo not drawn), the GI50 in the test on OVCAR-3, with ACHN, in the test with MDA-N, in the test with DU-145, in the test on MDA-MB-231 and with MCF7 was > 100 µM (inactive) in each case. In addition, the GI50 with HCT-15 was > 100 µM; in the test on EKVX it was > 100 µM (inactive); with SK-MEL-28, > 100 µM (inactive); with HOP-62, > 100 µM (inactive); in the test on SNB-19, > 100 µM (inactive); in the test on CAKI-1, > 100 µM (inactive). The GI50 with NCI-H226 was > 100 µM (inactive); with K562, 10.6 µM (inactive); in the test on A498, > 100 µM (inactive); in the test with CCRF-CEM it was > 100 µM (inactive); in the test on A549 it was > 100 µM (inactive).
Take `N#C/N=C(/N)c1sc2nc3c(c(-c4ccc(Br)cc4)c2c1N)CCCC3`: the GI50 in the test on ACHN was 20.6 µM (inactive); in the test on MDA-N it was 3.42 µM (inactive); with DU-145 it was 21 µM (inactive); with MDA-MB-231, 20.6 µM (inactive); with MCF7, 18.5 µM (inactive); in the test on HCT-15, 10.2 µM. The GI50 is 32.9 µM (inactive) in the test on SK-MEL-28; 33.4 µM (inactive) with SNB-19; 14.5 µM (inactive) with CAKI-1; 15.9 µM (inactive) with NCI-H226; 9.23 µM (inactive) with K562; 26.1 µM (inactive) with NCI-H23. Besides, the results for the GI50 with A498, in the test with CCRF-CEM and in the test with A549 were 16.1 µM (inactive), 9.84 µM (inactive) and 25.4 µM (inactive), respectively.
On to `CCOC(=O)c1nc2cc(C(F)(F)F)ccc2nc1Oc1ccc(OC)cc1`, for which the GI50 in the test with OVCAR-3, with Malme-3M, in the test with ACHN, in the test on MDA-N, in the test with DU-145 and in the test with MDA-MB-231 was > 100 µM (inactive) throughout. Also, the GI50 with MCF7 was > 100 µM (inactive); in the test with HCT-15, > 100 µM; in the test on EKVX, > 100 µM (inactive); in the test on SK-MEL-28 it was > 100 µM (inactive); in the test with SNB-19, > 100 µM (inactive); with CAKI-1 it was > 100 µM (inactive). For the same molecule, the GI50 is > 100 µM (inactive) in the test on NCI-H226; > 100 µM (inactive) in the test with K562; > 100 µM (inactive) with IGROV-1; 66.2 µM (inactive) in the test on CCRF-CEM; > 100 µM (inactive) in the test on A549.
